pIC50: −log10 of the molar value. Positions of bridges follow the written chain, without caps; N, C: chain ends. Non-standard residues stand in square brackets, D forms with d. Residues, ends and D or L forms follow the SMILES beside them. *: point of attachment. Me3N+(CH2)2O(CH2)2O(CH2)2CO = C[N+](C)(C)CCOCCOCCC(=O)*; Trp(7-Me) = Cc1cccc2c(C[C@H](N)C(=O)O)c[nH]c12; dLys(Me3) = C[N+](C)(C)CCCC[C@@H](N)C(=O)O; 3Pal(5-Me) = Cc1cncc(C[C@H](N)C(=O)O)c1; 2Nal = N[C@@H](Cc1ccc2ccccc2c1)C(=O)O; AEF = NCCOc1ccc(C[C@H](N)C(=O)O)cc1; 3Pal = N[C@@H](Cc1cccnc1)C(=O)O; Lys(Me) = CNCCCC[C@H](N)C(=O)O; Pen = CC(C)(S)[C@H](N)C(=O)O; Thp = NC1(C(=O)O)CCOCC1; X3 = C[N+](C)(C)CCCCC*; Sar = CNCC(=O)O; X58 = NCCCCC*
What was measured:
[1] = Exposed Polar Surface Area (EPSA); assay type: physicochemical; settings: SFC on Chirex 3014 column; sample 1 mM DMSO stock; read-out: EPSA
Outline: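 SFC retention on a Chirex 3014 (S-valine/(R)-1-(α-naphthyl)ethylamine) column at 35 °C, 4 mL/min, 14 MPa outlet, 5–60% methanol/20 mM ammonium formate gradient in CO2. Retention times converted to EPSA (Å²) via linear calibration with 8 standards; samples from 1 mM DMSO stock, run in duplicate.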

IL-23R = target: T1, IL-23R (Homo sapiens, UniProt Q5VWK5); test: IL23R Reporter Assay; assay type: cell-based; settings: HEK293 cells containing IL-23R, IL-12RP1 and STAT-inducible firefly luciferase reporter; 10 ng/mL IL-23 (EC90); 5 h at 37° C.; read-out: IL23R Reporter Assay
T1 construct: host or cells: HEK293
T1 sequence (Q5VWK5 24-629): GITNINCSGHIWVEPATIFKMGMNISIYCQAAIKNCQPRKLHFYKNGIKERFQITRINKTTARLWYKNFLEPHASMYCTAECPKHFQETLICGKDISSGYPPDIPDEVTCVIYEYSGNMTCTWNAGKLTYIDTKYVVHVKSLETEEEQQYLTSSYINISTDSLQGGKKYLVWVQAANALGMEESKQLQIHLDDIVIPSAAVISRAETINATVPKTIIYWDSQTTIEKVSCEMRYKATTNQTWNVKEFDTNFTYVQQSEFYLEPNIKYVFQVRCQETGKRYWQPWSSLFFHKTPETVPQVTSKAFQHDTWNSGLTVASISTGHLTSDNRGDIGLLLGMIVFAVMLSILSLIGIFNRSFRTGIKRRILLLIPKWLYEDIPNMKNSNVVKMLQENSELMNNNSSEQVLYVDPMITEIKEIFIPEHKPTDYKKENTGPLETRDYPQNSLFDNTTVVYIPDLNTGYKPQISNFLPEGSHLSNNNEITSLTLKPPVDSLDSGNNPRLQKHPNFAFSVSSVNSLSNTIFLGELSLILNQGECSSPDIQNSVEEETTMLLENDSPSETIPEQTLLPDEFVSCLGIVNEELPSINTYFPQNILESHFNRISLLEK

Row | EPSA [1] | pIC50 (IL-23R) | Compound
1 | 189 A^2 | 8.43 | CC(=O)NCCCC[C@@H]1NC(=O)[C@H](Cc2c[nH]c3c(C)cccc23)NC(=O)[C@H]([C@@H](C)O)NC(=O)[C@H](CC(N)=O)NC(=O)[C@@H](NC(=O)COc2ccc(-c3ccc(F)cc3F)cc2C(=O)O)C(C)(C)SSC(C)(C)[C@@H](C(=O)N[C@@H](Cc2ccc(OCCCCC[N+](C)(C)C)cc2)C(=O)N[C@@H](Cc2ccc3ccccc3c2)C(=O)NC2(C(=O)N[C@@H](CCCCNC(C)=O)C(=O)N[C@@H](CC(N)=O)C(=O)N[C@@H](Cc3cccnc3)C(=O)N(C)CC(N)=O)CCOCC2)NC1=O [compound 527, DFNCO-Pen(3)-N-T-7MeW-K(Ac)-Pen(3)-TMAPF-2Nal-THP-K(Ac)-N-3Pya-Sar-CONH2]
2 | 163 A^2 | 8.42 | CC(=O)N(C)CCCC[C@@H]1NC(=O)[C@H](Cc2c[nH]c3c(C)cccc23)NC(=O)[C@H]([C@@H](C)O)NC(=O)[C@H](CC(=O)N(C)C)NC(=O)[C@@H](NC(=O)CCOCCOCC[N+](C)(C)C)C(C)(C)SSC(C)(C)[C@@H](C(=O)N[C@@H](Cc2ccc(OCCCCCN)cc2)C(=O)N[C@@H](Cc2ccc3ccccc3c2)C(=O)NC2(C(=O)N[C@@H](CCCCN(C)C(C)=O)C(=O)N[C@@H](CC(N)=O)C(=O)N[C@@H](Cc3cccnc3)C(=O)N(C)CC(=O)N(C)C)CCOCC2)NC1=O [compound 528, cPEG3aCO-Pen(3)-N(N(Me)2)-T-7MeW-K(NMeAc)-Pen(3)-APF-2Nal-THP-K(NMeAc)-N-3Pya-Sar-CON(Me)2] ({Me3N+(CH2)2O(CH2)2O(CH2)2CO}-[Pen]D(NMe2)T[Trp(7-Me)][Lys(Me)](Ac)[Pen]Y(X58)[2Nal][Thp][Lys(Me)](Ac)N[3Pal][Sar]-NMe2; disulfide 1-6)
3 | 171 A^2 | 9.05 | CC(=O)NCCCC[C@@H]1NC(=O)[C@H](Cc2c[nH]c3c(C)cccc23)NC(=O)[C@H]([C@@H](C)O)NC(=O)[C@H](CC(N)=O)NC(=O)[C@@H](NC(=O)[C@@H](CCCNC(=N)N)NC(C)=O)C(C)(C)SSC(C)(C)[C@@H](C(=O)N[C@@H](Cc2ccc(OCCCCC[N+](C)(C)C)cc2)C(=O)N[C@@H](Cc2ccc3ccccc3c2)C(=O)NC2(C(=O)N[C@@H](CCCCNC(C)=O)C(=O)N[C@@H](CC(N)=O)C(=O)N[C@@H](Cc3cncc(C)c3)C(=O)N(C)CC(N)=O)CCOCC2)NC1=O [compound 532, MeCO-r-Pen(3)-N-T-7MeW-K(Ac)-Pen(3)-TMAPF-2Nal-THP-K(Ac)-N-5MePyridinAla-Sar-CONH2] (Ac-[dR][Pen]NT[Trp(7-Me)]K(Ac)[Pen]Y(X3)[2Nal][Thp]K(Ac)N[3Pal(5-Me)][Sar]-NH2; disulfide 2-7)
4 | 170 A^2 | 8.80 | CC(=O)NCCCC[C@@H]1NC(=O)[C@H](Cc2c[nH]c3c(C)cccc23)NC(=O)[C@H]([C@@H](C)O)NC(=O)[C@H](CC(N)=O)NC(=O)[C@@H](NC(=O)[C@@H](CCCC[N+](C)(C)C)NC(C)=O)C(C)(C)SSC(C)(C)[C@@H](C(=O)N[C@@H](Cc2ccc(OCCN)cc2)C(=O)N[C@@H](Cc2ccc3ccccc3c2)C(=O)NC2(C(=O)N[C@@H](CCCCNC(C)=O)C(=O)N[C@@H](CC(N)=O)C(=O)N[C@@H](Cc3cncc(C)c3)C(=O)N(C)CC(N)=O)CCOCC2)NC1=O [compound 533, MeCO-k(Me)3-Pen(3)-N-T-7MeW-K(Ac)-Pen(3)-AEF-2Nal-THP-K(Ac)-N-5MePyridinAla-Sar-CONH2] (Ac-[dLys(Me3)][Pen]NT[Trp(7-Me)]K(Ac)[Pen][AEF][2Nal][Thp]K(Ac)N[3Pal(5-Me)][Sar]-NH2; disulfide 2-7)

— patent US20260022143A1, “Cyclic Peptide Inhibitors of IL-23” (JANSSEN PHARMACEUTICA NV, priority 2022, published 2026)
